The results in this text go back to patent US7208505B2, “β3 adrenergic agonists” (Eli Lilly and Company, priority 2001, dated 2007).

T1 sequence (P13945 whole entry): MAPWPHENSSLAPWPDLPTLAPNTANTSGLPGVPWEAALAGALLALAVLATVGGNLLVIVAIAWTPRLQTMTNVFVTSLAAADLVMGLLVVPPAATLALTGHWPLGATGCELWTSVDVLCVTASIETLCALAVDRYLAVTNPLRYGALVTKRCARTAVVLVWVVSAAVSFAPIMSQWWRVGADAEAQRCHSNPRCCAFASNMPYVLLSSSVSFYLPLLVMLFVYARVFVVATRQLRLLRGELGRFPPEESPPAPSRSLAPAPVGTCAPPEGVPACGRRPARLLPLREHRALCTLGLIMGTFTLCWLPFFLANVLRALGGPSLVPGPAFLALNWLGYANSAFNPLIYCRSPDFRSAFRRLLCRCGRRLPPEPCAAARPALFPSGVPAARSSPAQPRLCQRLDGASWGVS

The test has as its target T1, human β3 adrenergic receptor (Homo sapiens, UniProt P13945).
T1 construct: expressed in transfected cells
The test is described as follows: whole cell receptor coupled c-AMP assay (Emax relative to isoproterenol). As to conditions: % intrinsic activity: maximal response divided by isoproterenol maximal response times 100; transfected CHO cells; average of at least 3 runs. The class given is cell-based. The text has this: The genes encoding the human β1-adrenergic receptor (Frielle et al., Proc. Natl. Acad. Sci., 84:7920–7924, 1987), the human β2-adrenergic receptor (Kobika et al., Proc. Natl. Acad. Sci., 84:46–50, 1987, Emorine et al., Proc. Natl. Acad. Sci., 84:6995–6999, 1987) and the human β3 adrenergic receptor (Granneman et al., Molecular Pharmacology, 44(2):264–70, 1993) are individually subcloned into a phd expression vector (Grinnell et al., Bio/Technology, 5:1189–1192, 1987) and transfected into the DXB-11 Chinese hamster ovary (CHO) cell line by calcium phosphate precipitation methodology. The stably transfected cells are grown to 95% confluency in 95% Dulbecco's modified Eagles Medium (DMEM), 5% fetal bovine serum and 0.01% proline. Media is removed and the cells are washed with phosphate buffered (pH 7.4) saline (without magnesium and calcium). Cells are then lifted using an enzyme free cell dissociation solution (Specialty Media, Lavallette, N.J.) and pelleted by centrifugation.
Cells from each of the above cell lines are resuspended and added (20,000/well) to a 96-well plate. Cells are incubated at 37° C. with representative compounds of the invention for 20 minutes in buffer (Hank's balanced salt solution, 10 mM HEPES, 0.1% BSA, 1 mM L-ascorbic acid, 0.2% dimethyl sulfoxide, 1 mM 3-isobutyl-1-methylxanthine, pH 7.4). After halting the incubation with quench buffer (50 mM Na Acetate, 0.25% Triton X-100, pH 5.8), the c-AMP level is quantified by scintillation proximity assay (SPA) using a modification of the commercially available c-AMP kit (Amersham, Arlington Heights, Ill.) with rabbit anti-cAMP antibody (ICN Biomedicals, Aurora, Ohio) for the kit.
Sigmoidal dose response curves, from the whole cell receptor coupled c-AMP assay are fit to a four parameter logistic equation using non linear regression: y=(a−d)/(1+(Dose/c)^b)+d where a and d are responses at zero and maximal dose, b is the slope factor and c is the EC50 as previously described (DeLean et al., Am. J. Physiol., 235, E97-E102, 1978). EC50 is assessed as the concentration producing 50% of the maximum response to each agonist.
Isoproterenol is accepted in the art as a non-selective β3 agonist and is widely used as a comparator in evaluating the activity of compounds. See Trends in Pharm. Sci., 15:3, 1994. The % intrinsic activity (Emax) of representative compounds of the invention is assessed relative to isoproterenol by the compound's maximal response divided by the isoproterenol maximal response times 100.
As to `CC(=O)c1ccc(-c2cccc3c(CC(C)(C)NC[C@H](O)COc4ccccc4-c4ccon4)c[nH]c23)cc1` [Example 49], the “Emax (%) ± SEM” value was determined as 44.2 ± 1.2%. As to `CC(=O)c1ccc(-c2cccc3c(CC(C)(C)NC[C@H](O)COc4ccccc4-n4cccc4)c[nH]c23)cc1` [Example 50], the “Emax (%) ± SEM” value turned out to be 38.4 ± 3.2%. Then `CC(C)(Cc1c[nH]c2ccccc12)NC[C@H](O)COc1ccccc1-c1ccsc1.Cl` [Example 51], with 58.3 ± 1.3%; and `CC(C)(Cc1c[nH]c2c(OCC#N)cccc12)NC[C@H](O)COc1ccccc1-c1ccsc1.Cl` [Example 52], with 74.0 ± 3.1%; and `CC(C)(Cc1c[nH]c2c(C(=O)O)cccc12)NC[C@H](O)COc1ccccc1-c1ccc(S(N)(=O)=O)s1` [Example 54], with 79.0 ± 3.5%. Then `CC(C)(Cc1c[nH]c2cc(C(=O)O)ccc12)NC[C@H](O)COc1ccccc1-c1ccc(S(N)(=O)=O)s1` [Example 55], with 78.4 ± 0.2%; and `CC(C)(Cc1c[nH]c2c(C(=O)O)cccc12)NC[C@H](O)COc1ccccc1-c1ccsc1` [Example 61], with 56.6 ± 2.7%; and `CC(C)(Cc1c[nH]c2cc(C(=O)O)ccc12)NC[C@H](O)COc1ccccc1-c1ccsc1` [Example 62], with 63.8 ± 0.5%.

As to `O[C@@H](CNCCn1ccc2ccccc21)COc1ccccc1-c1cccs1` [Example 64], the “Emax (%) ± SEM” value was determined as 22.2 ± 4.5%. `C[C@H](Cn1ccc2ccccc21)NC[C@H](O)COc1ccccc1-c1nccs1` [Example 66]: the “Emax (%) ± SEM” value worked out at 34.8 ± 3.2%. To `C[C@H](Cn1ccc2ccc(OCC#N)cc21)NC[C@H](O)COc1ccccc1-c1cccs1` [Example 67] belongs 28.6 ± 3.4%. Then `CC(C)(Cc1c[nH]c2ccccc12)NC[C@H](O)COc1ccccc1-c1nccs1` [Example 68], with 53.2 ± 1.6%.

As for `COC(=O)c1cccc2[nH]cc(CC(C)(C)NC[C@H](O)COc3ccccc3-c3cccs3)c12` [Example 69], the “Emax (%) ± SEM” value came out at 39.1 ± 7.1%.

Regarding `COC(=O)c1ccc2[nH]cc(CC(C)(C)NC[C@H](O)COc3ccccc3-c3cccs3)c2c1` [Example 70], the “Emax (%) ± SEM” value is given as 37.3 ± 2.7%. Then `CC(C)(Cc1c[nH]c2ccc(C(N)=O)cc12)NC[C@H](O)COc1ccccc1-c1cccs1` [Example 71], with 47.4 ± 1.8%; and `CC(C)(CNC(=O)c1c[nH]c2ccccc12)NC[C@H](O)COc1ccccc1-c1cccs1` [Example 73], with 32.1 ± 3.3%; and `CC(C)(Cc1c[nH]c2ccc(C#N)cc12)NC[C@H](O)COc1ccccc1-c1cccs1` [Example 74], with 28.3 ± 2.6%.

`COC(=O)c1ccc2c(CC(C)(C)NC[C@H](O)COc3ccccc3-c3cccs3)c[nH]c2c1` [Example 75]: the “Emax (%) ± SEM” value amounted to 47.2 ± 0.3%. As for `COC(=O)c1cccc2c(CC(C)(C)NC[C@H](O)COc3ccccc3-c3cccs3)c[nH]c12` [Example 76], the “Emax (%) ± SEM” value is 67.6 ± 5.2%. Take `CC(C)(Cc1c[nH]c2cc(C#N)ccc12)NC[C@H](O)COc1ccccc1-c1cccs1` [Example 77]: the “Emax (%) ± SEM” value was determined as 73.9 ± 1.3%. Then `CC(C)(Cc1c[nH]c2cc(C#N)ccc12)NC[C@H](O)COc1ccccc1-c1ccon1` [Example 78], with 58.6 ± 0.9%; and `CC(C)(Cc1c[nH]c2ccccc12)NC[C@H](O)COc1ccccc1-c1cscn1` [Example 79], with 58.2 ± 2.3%; and `CC(C)(Cc1c[nH]c2ccccc12)NC[C@H](O)COc1ccc(F)cc1-c1ccon1` [Example 80], with 43.4 ± 2.0%. To `CC(C)(Cc1c[nH]c2ccccc12)NC[C@H](O)COc1ccc(F)cc1-c1ccno1` [Example 81] belongs 35.1 ± 2.1%; to `CC(C)(Cc1c[nH]c2ccccc12)NC[C@H](O)COc1ccccc1-c1nncs1` [Example 82], 45.5 ± 3.5%; to `CC(C)(Cc1c[nH]c2ccccc12)NC[C@H](O)COc1ccccc1-c1ccns1` [Example 83], 73.7 ± 2.0%. Then `CC(C)(Cc1c[nH]c2c(C(=O)O)cccc12)NC[C@H](O)COc1ccccc1-c1ccc(C#N)s1` [Example 90], with 90.4 ± 3.8%.

Regarding `CC(C)(Cc1c[nH]c2cc(C(=O)O)ccc12)NC[C@H](O)COc1ccccc1-c1ccc(C#N)s1` [Example 96], the “Emax (%) ± SEM” value turned out to be 74.1 ± 2.4%.

As to `CC(C)(Cc1c[nH]c2c(OCC#N)cccc12)NC[C@H](O)COc1ccccc1-c1cccs1` [Example 101], the “Emax (%) ± SEM” value is recorded as 76.5 ± 12.6%. To `CC(C)(Cc1c[nH]c2c(-c3ccc(C(N)=O)cc3)cccc12)NC[C@H](O)COc1ccccc1-c1cccs1` [Example 102] belongs 69.0 ± 2.2%; to `CC(C)(Cc1c[nH]c2c(-c3ccc(C(N)=O)cc3)cccc12)NC[C@H](O)COc1ccccc1-c1ccon1` [Example 103], 57.1 ± 2.4%. Regarding `CC(C)(Cc1c[nH]c2c(-c3ccc(C(F)(F)F)cc3)cccc12)NC[C@H](O)COc1ccccc1-c1cccs1` [Example 104], the “Emax (%) ± SEM” value amounted to 59.2 ± 1.0%. To `CC(C)(Cc1c[nH]c2c(-c3ccc(C(F)(F)F)cc3)cccc12)NC[C@H](O)COc1ccccc1-c1ccon1` [Example 105] belongs 69.1 ± 3.8%. Then `CC(C)(Cc1c[nH]c2c(-c3ccsc3)cccc12)NC[C@H](O)COc1ccccc1-c1cccs1` [Example 106], with 78.0 ± 8.5%; and `CC(C)(Cc1c[nH]c2c(-c3ccsc3)cccc12)NC[C@H](O)COc1ccccc1-c1ccon1` [Example 107], with 57.9 ± 6.2%.

As to `CC(C)(Cc1c[nH]c2c(-c3cccs3)cccc12)NC[C@H](O)COc1ccccc1-c1cccs1` [Example 108], the “Emax (%) ± SEM” value is listed as 71.5 ± 7.9%.

For `CC(C)(Cc1c[nH]c2c(-c3cccs3)cccc12)NC[C@H](O)COc1ccccc1-c1ccon1` [Example 109], the “Emax (%) ± SEM” value came to 68.0 ± 4.1%. Then `CC(C)(Cc1c[nH]c2c(-c3ccc(C(F)(F)F)cc3C(F)(F)F)cccc12)NC[C@H](O)COc1ccccc1-c1cccs1` [Example 110], with 72.7 ± 5.3%; and `CC(C)(Cc1c[nH]c2c(-c3ccc(C(F)(F)F)cc3C(F)(F)F)cccc12)NC[C@H](O)COc1ccccc1-c1ccon1` [Example 111], with 86.0 ± 4.0%; and `CC(C)(Cc1c[nH]c2c(Oc3ncccc3C#N)cccc12)NC[C@H](O)COc1ccccc1-c1cccs1` [Example 112], with 97.7 ± 5.9%.

As to `CC(C)(Cc1c[nH]c2c(Oc3ncccc3C#N)cccc12)NC[C@H](O)COc1ccccc1-c1ccon1` [Example 113], the “Emax (%) ± SEM” value came out at 76.5 ± 3.0%.

With `CC(C)(Cc1c[nH]c2c(Oc3cc(C#N)ccn3)cccc12)NC[C@H](O)COc1ccccc1-c1cccs1` [Example 114], the “Emax (%) ± SEM” value worked out at 72.1 ± 5.0%. With `CC(C)(Cc1c[nH]c2c(Oc3ccc(C#N)cn3)cccc12)NC[C@H](O)COc1ccccc1-c1cccs1` [Example 115], the “Emax (%) ± SEM” value was 83.3 ± 4.0%. To `CC(C)(Cc1c[nH]c2c(Oc3ccc(C#N)cn3)cccc12)NC[C@H](O)COc1ccccc1-c1ccon1` [Example 116] belongs 58.1 ± 1.6%; to `COC(=O)c1ccc(Oc2cccc3c(CC(C)(C)NC[C@H](O)COc4ccccc4-c4cccs4)c[nH]c23)nc1` [Example 117], 67.6 ± 3.9%; to `COC(=O)c1ccc(-c2ccccc2OC[C@@H](O)CNC(C)(C)Cc2c[nH]c3ccccc23)s1` [Example 124], 36.1 ± 7.6%. Consider `CC(C)(Cc1c[nH]c2ccccc12)NC[C@H](O)COc1cccnc1-c1cccs1` [Example 125], for which the “Emax (%) ± SEM” value is reported as 59.2 ± 2.2%. To `CC(C)(Cc1c[nH]c2ccccc12)NC[C@H](O)COc1ccccc1-c1ccc(F)s1` [Example 126] belongs 76.1 ± 2.9%; to `C[C@H](CN1CCc2ccccc21)NC[C@H](O)COc1ccccc1-c1cccs1` [Example 128], 46.5 ± 3.0%. Consider `C[C@H](CN1CCc2ccccc21)NC[C@H](O)COc1ccccc1-c1ccon1` [Example 129], for which the “Emax (%) ± SEM” value came to 35.2 ± 3.3%. Then `C[C@H](NC[C@H](O)COc1ccccc1-c1cccs1)C(=O)N1CCc2ccccc21` [Example 130], with 36.3 ± 1.8%.
